Laboratory results reported in paper PMC2873993, “Comparative Therapeutic Effects of Velaglucerase Alfa and Imiglucerase in a Gaucher Disease Mouse Model” (PLoS ONE, 2010).
Numbering of substitutions follows the chain as printed.

Legend:
[1] = target: T1, Vela (Homo sapiens, UniProt P04062); assay: Inhibition of Vela by active site-directed GCase inhibitors (4MU-Glc substrate); format: biochemical; conditions: 8 pmol enzyme protein; SE ≤20%
T1 construct: purchased HGT/Shire, Cambridge, MA Lot#FEC06-002
T1 sequence (P04062 40-536): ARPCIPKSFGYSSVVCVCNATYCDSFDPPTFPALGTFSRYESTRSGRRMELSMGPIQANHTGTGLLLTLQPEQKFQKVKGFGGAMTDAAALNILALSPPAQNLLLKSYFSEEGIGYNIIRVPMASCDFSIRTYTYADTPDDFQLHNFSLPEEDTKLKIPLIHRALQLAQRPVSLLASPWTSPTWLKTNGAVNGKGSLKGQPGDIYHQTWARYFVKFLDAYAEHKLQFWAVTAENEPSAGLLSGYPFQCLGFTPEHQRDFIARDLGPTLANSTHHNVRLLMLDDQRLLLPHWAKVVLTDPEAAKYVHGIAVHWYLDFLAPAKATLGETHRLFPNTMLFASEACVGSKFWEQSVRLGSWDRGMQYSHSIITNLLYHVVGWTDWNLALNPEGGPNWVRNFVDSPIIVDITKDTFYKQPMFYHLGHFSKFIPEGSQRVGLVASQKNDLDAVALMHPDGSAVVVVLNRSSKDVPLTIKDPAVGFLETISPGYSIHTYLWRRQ

[2] = target: T2, Imig (Homo sapiens, UniProt P04062, R534H); assay: Inhibition of Imig by active site-directed GCase inhibitors (4MU-Glc substrate); format: biochemical; conditions: 8 pmol enzyme protein; SE ≤20%
T2 construct: purchased Genzyme, Cambridge, MA Lot#A7021H04; host or cells: CHO cells
T2 sequence (P04062 40-536 R534H): T1 sequence (P04062 40-536) with R495H

[3] = tested on: 9 V/null mouse; parameters: method as in PMID 17509920; conditions: cited from earlier work
[4] = tested on: patients; conditions: Gaucher disease patients; cited from earlier work

O[C@H]1[C@H](O)[C@@H](O)[C@@H]2O[C@@H]2[C@@H]1O (racemic) [Conduritol B epoxide] gave an IC50 [1] of 99.8 µM and an IC50 [2] of 146 µM.

For CCCCCCCC(=O)N[C@H](CN1CCCC1)[C@H](O)c1ccc2c(c1)OCCO2 [Genz 112638], the “effect on alveolar Gaucher cells” value [3] is listed as “clearance of the alveolar Gaucher cells”.

B1: alglucerase (protein, UniProt P04062 40-536, looked up)
Lysosomal acid …: T1 sequence (P04062 40-536)
modifications: mannosyl-terminated glycans
In the case of B1, the “patients who developed an IgG antibody response” value [4] is listed as 13–15%.
